# “Also recorded” adds a separate entry of the source.
# System: MiaPaCa-2 xenograft tumors
# Assay: Xenograft tumor growth in NU/NU mice after subcutaneous implantation of MiaPaCa tumor cells, intratumoral injections
# Type: in vivo, mouse
# Details: vs control; for tumor weight: xenografts harvested Day 25, n=8, FIG. 14(a)
# Method: Twenty-four NU/NU nude mice were purchased from Charles River Laboratories (Frederick, MD) and each housed in a single cage with standard bedding, lighting and ad libitum feed.
# The human pancreatic cell carcinoma MiaPaCa-2 cell line was obtained from American Type Culture Collection (ATCC, CRL-1420™) and cultured in DMEM with 10 percent fetal bovine serum and 1 percent pen-strep in a humidified incubator with temperature at 37 degrees C., and 5 percent CO2. Subcultures were made when cell volume reached ˜80-90 percent (roughly 3-5 days). Media was changed every 3 to 4 days. All experiments were performed when the cells reached approximately 80-90 percent confluence.
# MiaPaCa tumor cells (2.5×10^6 cells) in 100 μl of growth media and 100 μl of Matrigel were injected subcutaneously into the left flank of each mouse on Day 0. Body weight measured using a digital scale, and tumor volume measured using a digital caliper, were recorded […]. Tumor volume was measured using external digital calipers with modified ellipsoid formula: ½(length×width^2).
# The mice were assigned to one of three groups (n=8) approximately five to ten days after subcutaneous implantation of MiaPaCa cells, when tumors had reached 100 mm^3 in volume. Twice weekly (Mon. and Thurs.) for three-four weeks, mice in all three groups received intratumoral injections of 80 μl each. Mice in the control group were injected with non-silencing (NS) siRNA with HKP(+H) as a carrier. Mice in one of the treatment groups were injected with PGN7, i.e., GEM siRNA with HKP(+H)shk1 (2.z), (SEQ. ID No. 9-10). Mice in the second treatment group were injected with STD1, i.e., GEM siRNA with HKP(+H) chk1 (2.z) (SEQ. ID No. 3-4). All injections were given under isoflurane anesthesia to minimize discomfort
# Tumor volume (mm^3) and body weights were measured on Days 0, 4, 7, 11, 14, 18, 21 and 25. Mean±SE for each group (PGN7, STD1 and control) were statistically compared using analysis of variance (ANOVA) with the Tukey test. Mice were also observed for excess growth, adverse reactions to treatments and other observable, adverse signs of health. Treatments were blinded to the tracers and data analysts.
# All mice were sacrificed and the implanted xenograft removed on Day 26 after initial treatment (the last treatment given on Day 25). One-third of the xenograft was fixed in […] formalin for histological analysis; one-third was frozen and one-third was preserved in RNAlater stabilization and storage solution.
substance,measurement,setting,value
PGN7: modified siRNA-GEM RNAi agent (SEQ. ID No. 9-10): sense 5′-AAGAAAgAgau[GEM]uGuAu[GEM]AAu-3′; antisense 5′-AuUGAuACAGAuCuCuUuCuU[GEM][GEM]dTdT-3′ (sense AAGAAAGAGATCTGTATCAAT; antisense ATTGATACAGATCTCTTTCTTCCTT; GEM modifications; 2'-modified bases; dTdT overhang; modified_base 1 OTHER; 2'-O-methyl modified nucleotide; modified_base 2 OTHER; modified_base 3 OTHER; modified_base 4 OTHER; modified_base 5 OTHER; modified_base 6 OTHER; modified_base 7 OTHER; 2'-fluoro modified nucleotide; modified_b; 2'-O-me),tumor volume,"intratumoral twice weekly with HKP(+H), ANOVA Tukey, p<0.02, from 14 days, FIG. 14(c)",effectively attenuated the increase; also recorded: significantly reduced tumor volume; also recorded: attenuating the growth of pancreatic tumors
same,body weight,"over 25 days, p>0.05, FIG. 14(b)",did not differ
same,tumor weight,p>0.05,did not differ
same,tumor weight,"p>0.05, listed as PGN 7",did not differ significantly

# Source: patent US20250027086A1, “COMPOSITIONS AND METHODS FOR TREATMENT OF CANCERS USING MODIFIED siRNA-GEM AGENTS” (Sirnaomics, Inc., priority 2022, published 2025)
